How the values were obtained:
[1] = Body weight of animals in the mouse collagen-induced arthritis model; type: in vivo; conditions: oral, X8 1 mg/kg once a day; for body weight of animals, Mean/g: mean of group, Methotrexate 0.25 mg/kg once a week, Tofacitinib 5 mg/kg once a day
From the text: Sixty male DBA/1J mice (9-10 weeks old, H-2q haplotype) were acclimatized in a standard animal room for one week and then randomly divided into 5 groups. Except for the healthy control group, the rest were inoculated with collagen antigen injection, and then received oral treatment with different compounds. The brief procedure was to mix bovine type II collagen (purchased from Chondrex, 20021) with an equal volume of Freund's complete adjuvant (purchased from Sigma, F5881), the concentration was 4 mg/ml, and it was treated with a homogenizer at a speed of 20,000 revolutions/min for 5-10 minutes. A needle was inserted between the left side of the dorsal caudal artery and the lateral vein of the mouse, and 50 microliters of modeling agent was injected subcutaneously. 21 days after the first injection, another injection was injected between the right side of the dorsal tail artery and the lateral vein of the mouse. After the first injection, oral administration was started. The drug was formulated with […] PEG300, and it was prepared for immediate use. […] The total score was between 0-12 points, and the swelling of the foot after vaccination was not calculated.

[2] = system: STAT5 Y694 phosphorylation; assay: Protein electrophoresis and blotting of STAT5 Y694 phosphorylation in Jurkat cells stimulated with human interferon beta; type: cell-based; conditions: for Inhibiting Ratio (0% for vehicle control): 1 hour pretreatment, 20 ng/ml human interferon beta 30 minutes, pSTAT5/GAPDH
Method in brief: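 Serum-free Jurkat cells pretreated with compound 1 h, then stimulated with 20 ng/ml human interferon beta for 30 min at 37° C. pSTAT5 measured by western blot with chemiluminescence, normalized to GAPDH and expressed as percent of DMSO control.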

[3] = system: STAT5 Y694 phosphorylation; assay: HTRF experiment: STAT5 Y694 phosphorylation in Hela cells stimulated with human interferon beta; type: cell-based; conditions: 2 hours pretreatment, 10 nM human interferon beta 30 minutes

SMILES: O=C(Cc1ccc(C(F)(F)F)cc1)N1CCC(n2c(=O)[nH]c3ccccc32)CC1 [Example X8, 1-(1-(2-(4-(trifluoromethyl)phenyl)acetyl)piperidin-4-yl)-1H-benzo[d]imidazole-2(3H)-one]
- body weight of animals, Mean/g ([1]; day 0): 21.50 g
- body weight of animals, Mean/g ([1]; day 4): 21.52 g
- body weight of animals, Mean/g ([1]; day 7): 21.93 g
- body weight of animals, Mean/g ([1]; day 11): 21.90 g
- body weight of animals, Mean/g ([1]; day 14): 21.92 g
- body weight of animals, Mean/g ([1]; day 18): 22.23 g
- body weight of animals, Mean/g ([1]; day 20): 22.50 g
- body weight of animals, Mean/g ([1]; day 25): 22.07 g
- body weight of animals, Mean/g ([1]; day 28): 21.82 g
- body weight of animals, Mean/g ([1]; day 31): 21.71 g
- body weight of animals, Mean/g ([1]; day 33): 21.82 g
- body weight of animals, Mean/g ([1]; day 35): 21.55 g
- body weight of animals, Mean/g ([1]; day 38): 21.71 g
- body weight of animals, Mean/g ([1]; day 40): 21.64 g
- body weight of animals, Mean/g ([1]; day 42): 21.61 g
- body weight of animals, Mean/g ([1]; day 45): 21.98 g
- effect on body weight of animals (in words) ([1]; whole experiment, days 0-45, methotrexate 0.25 mg/kg once a week, tofacitinib 5 mg/kg once a day): no significant effect on body weight of animals, and no drastic changes were seen
- Inhibiting Ratio (0% for vehicle control) ([2]; 1 μM): 6.9%
- Inhibiting Ratio (0% for vehicle control) ([2]; 10 μM): 31.4%
- Inhibiting Ratio (0% for vehicle control) ([2]; 100 μM): 95.6%
- Example of Effect 1: Inhibiting Ability (Protein Electrophoresis and Blotting) ([2]; observed pSTAT5 bands at 10 μM and 100 μM): +
- Example of Effect 3: Inhibiting Ratio@10 μM (HTRF Experiment) [3]: 22.60%
